Experiments:
Human plasma stability = assay type: in vitro ADME; conditions: 3 μM, 37° C.
Protocol: (§1) Method: Assay was carried out in 96-well microtiter plates. Compounds were incubated in replicates (n=2) for 0, 5, 15, 30, and 45 minutes at 37° C. Reaction mixtures (20 μL) contained a final concentration of 3 μM test compound in human plasma. Eucatropine included as positive control to verify assay performance. Linear regression of semi-log plot of % remaining of compounds versus time used to determine the half-life t½ values.

[1] = CD-1 mouse plasma stability; assay type: in vitro ADME; conditions: 3 μM, 37° C.
Protocol: as §1, with “fresh CD-1 mouse” for “human”, “t1/2” for “t½”

Rat plasma stability = assay type: in vitro ADME; conditions: 3 μM, 37° C.
Protocol: as §1, with “fresh Sprague Dawley rat” for “human”, “is a” for “included as”, “t1/2” for “t½”

[2] = Mouse plasma stability (Compound 1); assay type: in vitro ADME; conditions: 37° C.
[3] = Plasma PK of Int 3-3 in CD-1 mice (study c); assay type: in vivo; conditions: after iv Int 3-3 8.8 mg/kg
Protocol: Objectives: to determine the plasma pharmacokinetics of Int 3-3 following a single intravenous infusion of Int 3-3 at 8.83 mg/kg in CD-1 mice
PK measurements: compare PK parameters C0, CL, Vdss, Cmax, tmax, t1/2, AUC(0-t), AUC(0-inf), MRT(0-t), MRT(0-inf) for Int 3-3.

[4] = Metabolic stability in liver hepatocytes, human; assay type: in vitro ADME
[5] = Metabolic stability in liver hepatocytes, mouse; assay type: in vitro ADME
[6] = Metabolic stability in liver hepatocytes, dog; assay type: in vitro ADME
[7] = Metabolic stability in liver hepatocytes, monkey; assay type: in vitro ADME
Human liver S9 stability = assay type: in vitro ADME
Mouse liver S9 stability = assay type: in vitro ADME
[8] = Monkey liver S9 stability; assay type: in vitro ADME
Dog liver S9 stability = assay type: in vitro ADME
Rat liver S9 stability = assay type: in vitro ADME
[9] = Comparative plasma PK of Compound 1 versus Int 1-4 in male CD-1 mice (study b); assay type: in vivo
Protocol: Objectives: to compare the plasma pharmacokinetics and stability of Compound 1 with its non-phosphorylated SMDC analog (Int 1-4) and in plasma following a single intravenous infusion administration of Compound 1 at 11.6 mg/kg and 23.2 mg/kg with Int 1-4 (formulation F1 & F2) at 10.0 mg/kg in male CD-1 mice
PK measurements: compare PK parameters C0, CL, Vdss, Cmax, tmax, t1/2, AUC(0-t), AUC(0-inf), MRT(0-t), MRT(0-inf) for Compound 1 and Int 1-4

[10] = negative value indicates compound is stable

CC1CC(OC(=O)C(O)c2ccccc2)CC(C)(C)N1C (centres unmarked) [Eucatropine, reference compound]
half-life at 3 μM (Human plasma stability; read-out: t1/2 Mean ± SE): 15.1 ± 1.1 min | Slope Mean ± SE (Human plasma stability; semi-log plot of % remaining versus time, in min-1 (unit assumed)): −0.04591 ± 0.003277 | Slope Mean ± SE ([1]; in min-1 (unit assumed)): −0.03084 ± 0.003016 | half-life at 3 μM ([1]; fresh CD-1 mouse plasma, read-out: t1/2 Mean ± SE): 22.5 ± 2.2 min | Slope Mean ± SE (Rat plasma stability; Sprague Dawley rat plasma): −0.007881 ± 0.00112 | half-life at 3 μM (Rat plasma stability; fresh Sprague Dawley rat plasma, read-out: t1/2 Mean ± SE): 87.9 ± 12.5 min | Slope Mean ± SE ([2]; 3 μM): −0.03084 ± 0.003016 | half-life at 3 μM ([2]; CD-1, 3 μM, read-out: t1/2 Mean ± SE): 22.5 ± 2.2 min

[2H]C([2H])([2H])Oc1cc(OC([2H])([2H])[2H])c2oc(COC(=O)Nc3ccn([C@@H]4O[C@H](CO)[C@@H](O)C4(F)F)c(=O)n3)cc2c1 [Int 3-3]
AUC0-inf/AUC0-last [3]: 101% | AUC(0-t) ([3]; mouse): 3480 ng·h/mL | C0 ([3]; mouse): 45900 ng/mL | clearance ([3]; mouse): 43.3 mL/min/kg | half-life ([3]; mouse): 74.4 min | AUC(0-inf) ([3]; mouse, read-out: AUC0-inf): 3510 ng·h/mL | MRT inf ([3]; mouse, read-out: MRT0-inf): 46 min | MRT last ([3]; mouse, read-out: MRT0-last): 42.2 min | Vd ([3]; mouse, read-out: Vdss): 1.83 L/kg

C=CCN1CC[C@]23c4c5ccc(O)c4O[C@H]2C(=O)CC[C@@]3(O)[C@H]1C5 [Naxalone]
Slope Mean ± SE [4]: −0.01335 ± 0.000878 | t1/2 mean ± SE [4]: 51.9 ± 3.4 min | Slope Mean ± SE [5]: −0.01828 ± 0.000731 | t1/2 mean ± SE [5]: 37.9 ± 1.5 min | Slope Mean ± SE [6]: −0.01302 ± 0.001119 | t1/2 mean ± SE [6, 10]: 53.2 ± 4.6 min | Slope Mean ± SE [7]: −0.02948 ± 0.001002 | t1/2 mean ± SE [7, 10]: 23.5 ± 0.8 min

COc1cc2ccc(=O)oc2cc1O [Scopoletin, reference compound]
half-life (Human liver S9 stability; human liver S9, read-out: t1/2 Mean ± SE): 8.2 ± 0.2 min | microsomal CLint (Human liver S9 stability; human, liver S9, human liver S9, read-out: CLint Mean ± SE): 33.8 ± 0.92 µL/min/mg | Slope Mean ± SE (Mouse liver S9 stability; mouse liver S9): −0.06127 ± 0.006525 | half-life (Mouse liver S9 stability; mouse liver S9, read-out: t1/2 Mean ± SE): 11.3 ± 1.2 min | microsomal CLint (Mouse liver S9 stability; mouse, liver S9, mouse liver S9, read-out: CLint Mean ± SE): 24.5 ± 2.61 µL/min/mg | Slope Mean ± SE ([8]; monkey liver S9): −0.1391 ± 0.01406 | half-life ([8]; monkey liver S9, read-out: t1/2 Mean ± SE): 5 ± 0.5 min | microsomal CLint ([8]; monkey, liver S9, monkey liver S9, read-out: CLint Mean ± SE): 55.6 ± 5.62 µL/min/mg | Slope Mean ± SE (Dog liver S9 stability; dog liver S9): −0.03892 ± 0.001665 | half-life (Dog liver S9 stability; dog liver S9, read-out: t1/2 Mean ± SE): 17.8 ± 0.8 min | microsomal CLint (Dog liver S9 stability; dog, liver S9, dog liver S9, read-out: CLint Mean ± SE): 15.6 ± 0.666 µL/min/mg | Slope Mean ± SE (Rat liver S9 stability; rat liver S9): −0.03134 ± 0.00198 | half-life (Rat liver S9 stability; rat liver S9, read-out: t1/2 Mean ± SE): 22.1 ± 1.4 min | microsomal CLint (Rat liver S9 stability; rat, liver S9, rat liver S9, read-out: CLint Mean ± SE): 12.5 ± 0.792 µL/min/mg

Gemcitabine monophosphate
AUC0-last ([9]; after iv Compound 1 11.6 mg/kg): 0.840 ng·h/mL | Cmax ([9]; after iv Compound 1 11.6 mg/kg): 33.6 ng/mL | MRT0-last ([9]; after iv Compound 1 11.6 mg/kg): 1.79 min | Tmax ([9]; after iv Compound 1 11.6 mg/kg): 1.5 min | AUC0-last ([9]; after iv Compound 1 23.2 mg/kg): 1.18 ng·h/mL | AUC(0-inf) ([9]; after iv Compound 1 23.2 mg/kg): 1.44 ng·h/mL | Cmax ([9]; after iv Compound 1 23.2 mg/kg): 30.4 ng/mL | MRT0-inf ([9]; after iv Compound 1 23.2 mg/kg): 3.3 min | MRT0-last ([9]; after iv Compound 1 23.2 mg/kg): 2.38 min | Tmax ([9]; after iv Compound 1 23.2 mg/kg): 1.5 min | t1/2 ([9]; after iv Compound 1 23.2 mg/kg): 1.64 min

From patent publication US11760773B2, “Small molecule drug conjugates of gemcitabine monophosphate” (MaveriX Oncology, Inc., priority 2018, dated 2023)
